Starred links: 1 amine or outer side, 2 acyl side, 3 side chain; linkers in the order of their positions; H or OH if unused. Positions of bridges follow the written chain, without caps; N, C: chain ends. Non-standard residues stand in square brackets, D forms with d. Residues, ends and D or L forms follow the SMILES beside them. *: point of attachment. NMeAbu(3,3-F2-piperidino) = CN[C@@H](CCN1CCCC(F)(F)C1)C(=O)O; X6 = CN([C@@H](CCN1CCC(F)(F)CC1)C(=O)[*:2])[*:1]; 3Pal(6-NMe2) = CN(C)c1ccc(C[C@H](N)C(=O)O)cn1; N(isopentyl)Gly = CC(C)CCNCC(=O)O; Hyp = O=C(O)[C@@H]1C[C@@H](O)CN1; NMeF = CN[C@@H](Cc1ccccc1)C(=O)O; NMeGABA = CN(CCCC(=O)[*:2])[*:1]; NMeI = CC[C@H](C)[C@H](NC)C(=O)O; NMeL = CN[C@@H](CC(C)C)C(=O)O; dNMeL = CN[C@H](CC(C)C)C(=O)O; NMeNva = CCC[C@H](NC)C(=O)O; NMeV = CN[C@H](C(=O)O)C(C)C; Pip = O=C(O)[C@@H]1CCCCN1; NMeA = CN[C@@H](C)C(=O)O; Piperidide = C1CCN(*)CC1; NBuGly = CCCCNCC(=O)O; Isopentyl = CC(C)CC*; Sar = CNCC(=O)O; tBu = CC(C)(C)*
Experiment: Caco-2 membrane permeability, improved method as used in the following Examples (96-well, 20 to 24 h preincubation)
Type: in vitro ADME
Conditions: human, Caco-2, Caco-2
Procedure, shortened: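 Papp (cm/sec) was derived from LC/MS of basal samples collected 180 min after apical dosing in FaSSIF/HBSS pH 6.0 with 1% DMSO, against a basal HBSS pH 7.4 receiver containing 4% BSA. Three-week Caco-2 cultures were first preincubated with compound in DMEM+FaSSIF at 37 °C for 20–24 h.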

Compound	Papp A→B at 180 min
CCO[C@@H]1C[C@H]2C(=O)N[C@@H](COC(C)(C)C)C(=O)N(C)[C@@H](CC(C)C)C(=O)N(C)[C@@H](CC(C)C)C(=O)N3CCC[C@H]3C(=O)N[C@@H]([C@@H](C)O)C(=O)N(C)[C@@H](Cc3ccccc3)C(=O)N[C@@H](Cc3ccccc3)C(=O)N(C)[C@@H](CC(C)C)C(=O)N[C@H](C(=O)N3CCCCC3)CC(=O)N[C@H](CC(C)C)C(=O)N2C1 [pd378] ([dL][Hyp](Et)S(tBu)[NMeL][NMeL]PT[NMeF]F[NMeL]D-Piperidide; lactam N-11)	1.2 ×10⁻⁶ cm/s
CCC[C@H]1C(=O)N[C@@H](COC(C)(C)C)C(=O)N(C)[C@@H](CC(C)C)C(=O)N(C)[C@@H](CC(C)C)C(=O)N[C@@H](CC(C)C)C(=O)N[C@@H]([C@@H](C)O)C(=O)N2C[C@H](OCC)C[C@H]2C(=O)N[C@@H](Cc2ccccc2)C(=O)N(C)[C@@H](CC(C)C)C(=O)N[C@H](C(=O)N2CCCCC2)CC(=O)N[C@H](C(C)C)C(=O)N1C [pd380] ([dV][NMeNva]S(tBu)[NMeL][NMeL]LT[Hyp](Et)F[NMeL]D-Piperidide; lactam N-11)	3.8 ×10⁻⁶ cm/s
CCC[C@H]1C(=O)N[C@@H](CC(C)C)C(=O)N(C)[C@@H](CC(C)C)C(=O)N[C@@H]([C@@H](C)O)C(=O)N2C[C@H](OCC)C[C@H]2C(=O)N(C)[C@@H](CC(C)C)C(=O)N[C@@H]([C@@H](C)CC)C(=O)N(C)[C@@H](CC(C)C)C(=O)N2CCC[C@H]2C(=O)N[C@H](C(=O)N2CCCCC2)CC(=O)N(C)[C@H](CC(C)C)C(=O)N1C [pd381] ([dNMeL][NMeNva]L[NMeL]T[Hyp](Et)[NMeL]I[NMeL]PD-Piperidide; lactam N-11)	5.6 ×10⁻⁶ cm/s
CCC[C@H]1C(=O)N[C@@H](CC(C)C)C(=O)N(C)[C@@H](CC(C)C)C(=O)N[C@@H]([C@@H](C)O)C(=O)N2CCC[C@H]2C(=O)N(C)[C@@H](CC(C)C)C(=O)N[C@@H]([C@@H](C)CC)C(=O)N(C)[C@@H](CC(C)C)C(=O)N2C[C@H](OCC)C[C@H]2C(=O)N[C@H](C(=O)N2CCCCC2)CC(=O)N(C)[C@H](CC(C)C)C(=O)N1C [pd382] ([dNMeL][NMeNva]L[NMeL]TP[NMeL]I[NMeL][Hyp](Et)D-Piperidide; lactam N-11)	4.8 ×10⁻⁶ cm/s
CCO[C@@H]1C[C@H]2C(=O)N3CCCC[C@H]3C(=O)N[C@@H](COC(C)(C)C)C(=O)N(C)[C@@H](CC(C)C)C(=O)N[C@@H]([C@@H](C)O)C(=O)N(C)[C@@H](CC(C)C)C(=O)N(C)[C@@H](CC(C)C)C(=O)N(C)[C@@H](CC(C)C)C(=O)N[C@H](C(=O)N3CCCCC3)CC(=O)N[C@H](C(C)C)C(=O)N(C)[C@@H]([C@@H](C)CC)C(=O)N2C1 [pd383] ([dV][NMeI][Hyp](Et)[Pip]S(tBu)[NMeL]T[NMeL][NMeL][NMeL]D-Piperidide; lactam N-11)	2.8 ×10⁻⁶ cm/s
CCO[C@@H]1C[C@H]2C(=O)N(C)[C@@H](CC(C)C)C(=O)N[C@@H](COC(C)(C)C)C(=O)N3CCC[C@H]3C(=O)N[C@@H]([C@@H](C)O)C(=O)N(C)[C@@H](CC(C)C)C(=O)N(C)[C@@H](CC(C)C)C(=O)N(C)[C@@H](CC(C)C)C(=O)N[C@H](C(=O)N3CCCCC3)CC(=O)N[C@H](CC(C)C)C(=O)N(C)[C@@H]([C@@H](C)CC)C(=O)N2C1 [pd384] ([dL][NMeI][Hyp](Et)[NMeL]S(tBu)PT[NMeL][NMeL][NMeL]D-Piperidide; lactam N-11)	3.3 ×10⁻⁶ cm/s
CCO[C@@H]1C[C@H]2C(=O)N[C@@H]([C@@H](C)O)C(=O)N(C)[C@@H](CC(C)C)C(=O)N(C)[C@@H](CC(C)C)C(=O)N(C)[C@@H](CC(C)C)C(=O)N[C@H](C(=O)N3CCCCC3)CC(=O)N[C@H](CC(C)C)C(=O)N(C)[C@@H]([C@@H](C)CC)C(=O)N3CCC[C@H]3C(=O)N(C)[C@@H](CC(C)C)C(=O)N[C@@H](COC(C)(C)C)C(=O)N2C1 [pd385] ([dL][NMeI]P[NMeL]S(tBu)[Hyp](Et)T[NMeL][NMeL][NMeL]D-Piperidide; lactam N-11)	3.4 ×10⁻⁶ cm/s
CCCCN1CC(=O)N(C)[C@@H](CC(C)C)C(=O)N[C@@H](COC(C)(C)C)C(=O)N(C)[C@@H](Cc2ccccc2)C(=O)N(C)[C@@H](C(C)C)C(=O)N[C@H](C(=O)N2CCCCC2)CC(=O)N[C@H](C)C(=O)N(C)[C@@H](Cc2ccccc2)C(=O)N[C@@H](CC(C)C)C(=O)N(C)[C@@H](CCN2CCCC(F)(F)C2)C(=O)N[C@@H]([C@@H](C)O)C1=O [pd386] ([dA][NMeF]L[NMeAbu(3,3-F2-piperidino)]T[NBuGly][NMeL]S(tBu)[NMeF][NMeV]D-Piperidide; lactam N-11)	2.3 ×10⁻⁶ cm/s
CC(C)C[C@@H]1NC(=O)[C@H](Cc2ccccc2)N(C)C(=O)[C@@H](C(C)C)NC(=O)C[C@@H](C(=O)N2CCCCC2)NC(=O)[C@H](C(C)C)N(C)C(=O)[C@H](Cc2ccccc2)N(C)C(=O)[C@H](COC(C)(C)C)NC(=O)[C@H](CCN2CCCC(F)(F)C2)N(C)C(=O)CN(C)C(=O)[C@H]([C@@H](C)O)NC(=O)[C@H](CC(C)C)N(C)C1=O [pd387] ([dV][NMeF]L[NMeL]T[Sar][NMeAbu(3,3-F2-piperidino)]S(tBu)[NMeF][NMeV]D-Piperidide; lactam N-11)	3.5 ×10⁻⁶ cm/s
CCCCN1CC(=O)N(C)[C@@H](C(C)C)C(=O)N[C@@H](CC(C)C)C(=O)N(C)[C@@H](Cc2ccccc2)C(=O)N(C)[C@@H](CCN2CCCC(F)(F)C2)C(=O)N[C@H](C(=O)N2CCCCC2)CC(=O)N[C@H](C)C(=O)N(C)[C@@H](Cc2ccccc2)C(=O)N[C@@H](CC(C)C)C(=O)N(C)[C@@H](CC(C)C)C(=O)N[C@@H]([C@@H](C)O)C1=O [pd388] ([dA][NMeF]L[NMeL]T[NBuGly][NMeV]L[NMeF][NMeAbu(3,3-F2-piperidino)]D-Piperidide; lactam N-11)	1.8 ×10⁻⁶ cm/s
CC(C)C[C@@H]1NC(=O)[C@H](Cc2ccccc2)N(C)C(=O)[C@H](Cc2ccccc2)N(C)C(=O)[C@H](CC(C)C)NC(=O)[C@H](CC(C)C)N(C)C(=O)CCCN(C)C(=O)C[C@@H](C(=O)N2CCCCC2)NC(=O)[C@H](C)N(C)C(=O)[C@H](CCN2CCCC(F)(F)C2)N(C)C(=O)[C@H]([C@@H](C)O)NC(=O)[C@H](CC(C)C)N(C)C1=O [pd390] ([NMeGABA][NMeL]L[NMeF][NMeF]L[NMeL]T[NMeAbu(3,3-F2-piperidino)][NMeA]D-Piperidide; lactam N-11)	2 ×10⁻⁶ cm/s
CC(C)C[C@@H]1NC(=O)[C@H](C)N(C)C(=O)C[C@@H](C(=O)N2CCCCC2)NC(=O)[C@H](C(C)C)N(C)C(=O)CN(C)C(=O)[C@H]([C@@H](C)O)NC(=O)[C@H](CCN2CCCC(F)(F)C2)N(C)C(=O)[C@H](Cc2ccccc2)N(C)C(=O)[C@H](CC(C)C)NC(=O)[C@H](Cc2ccccc2)N(C)C(=O)[C@H](CC(C)C)N(C)C1=O [pd391] ([NMeA]L[NMeL][NMeF]L[NMeF][NMeAbu(3,3-F2-piperidino)]T[Sar][NMeV]D-Piperidide; lactam N-11)	2.4 ×10⁻⁶ cm/s
CCCCN1CC(=O)N(C)[C@@H](CCN2CCCC(F)(F)C2)C(=O)N[C@H](C(=O)N2CCCCC2)CC(=O)N(C)[C@@H](C)C(=O)N[C@@H](CC(C)C)C(=O)N(C)[C@@H](CC(C)C)C(=O)N(C)[C@@H](Cc2ccccc2)C(=O)N[C@@H](CC(C)C)C(=O)N(C)[C@@H](Cc2ccccc2)C(=O)N(C)[C@@H](C)C(=O)N[C@@H]([C@@H](C)O)C1=O [pd392] ([NMeA]L[NMeL][NMeF]L[NMeF][NMeA]T[NBuGly][NMeAbu(3,3-F2-piperidino)]D-Piperidide; lactam N-11)	3.5 ×10⁻⁶ cm/s
CC(C)CCOC[C@@H]1NC(=O)[C@H](CCN2CCCC(F)(F)C2)N(C)C(=O)[C@H](Cc2ccccc2)N(C)C(=O)CN(C)C(=O)[C@H]([C@@H](C)O)NC(=O)[C@H](CC(C)C)N(C)C(=O)[C@H](CC(C)C)NC(=O)[C@H](Cc2ccccc2)N(C)C(=O)CN(C)C(=O)C[C@@H](C(=O)N2CCCCC2)NC(=O)[C@H](CC(C)C)N(C)C1=O [pd393] ([Sar][NMeF]L[NMeL]T[Sar][NMeF][NMeAbu(3,3-F2-piperidino)]S(Isopentyl)[NMeL]D-Piperidide; lactam N-11)	2.5 ×10⁻⁶ cm/s
CCCCN1CC(=O)N(C)[C@@H](CC(C)C)C(=O)N[C@@H](CC(C)C)C(=O)N(C)[C@@H](Cc2ccccc2)C(=O)N(C)[C@@H](C)C(=O)N[C@H](C(=O)N2CCCCC2)CC(=O)N[C@H](C(C)C)C(=O)N(C)[C@@H](Cc2ccccc2)C(=O)N[C@@H](CC(C)C)C(=O)N(C)[C@@H](CCN2CCC(F)(F)CC2)C(=O)N[C@@H]([C@@H](C)O)C1=O [pd394] ([dV][NMeF]L[X6]T[NBuGly][NMeL]L[NMeF][NMeA]D-Piperidide; lactam N-11)	1.8 ×10⁻⁶ cm/s
CCCCN1CC(=O)N(C)[C@@H](Cc2ccccc2)C(=O)N[C@@H](CC(C)C)C(=O)N(C)[C@@H](CC(C)C)C(=O)N[C@@H]([C@@H](C)O)C(=O)N(C)CC(=O)N(C)[C@@H](Cc2ccccc2)C(=O)N(C)[C@@H](CCN2CCC(F)(F)CC2)C(=O)N[C@@H](CC(C)C)C(=O)N(C)[C@@H](C(C)C)C(=O)N[C@H](C(=O)N2CCCCC2)CC1=O [pd395] ([NBuGly][NMeF]L[NMeL]T[Sar][NMeF][X6]L[NMeV]D-Piperidide; lactam N-11)	1.7 ×10⁻⁶ cm/s
CC(C)CCN1CC(=O)N(C)[C@@H](CC(C)C)C(=O)N[C@@H](COC(C)(C)C)C(=O)N(C)[C@@H](Cc2ccccc2)C(=O)N(C)[C@@H](C(C)C)C(=O)N[C@H](C(=O)N2CCCCC2)CC(=O)N[C@H](C)C(=O)N(C)[C@@H](CC(C)C)C(=O)N[C@@H](Cc2ccc(N(C)C)nc2)C(=O)N(C)[C@@H](CC(C)C)C(=O)N[C@@H]([C@@H](C)O)C1=O [pd396] ([dA][NMeL][3Pal(6-NMe2)][NMeL]T[N(isopentyl)Gly][NMeL]S(tBu)[NMeF][NMeV]D-Piperidide; lactam N-11)	1.5 ×10⁻⁶ cm/s

Source: patent US20200131669A1, “CYCLIC PEPTIDE COMPOUND HAVING HIGH MEMBRANE PERMEABILITY, AND LIBRARY CONTAINING SAME” (Chugai Seiyaku Kabushiki Kaisha, priority 2017, published 2020)
